Measured values taken from ChEMBL document CHEMBL3045317, “Synthesis of novel analogues on the -carbon of houttuyfonate and SAR analysis of antibacterial activity with MOPAC” (Med Chem Res, 2009).
The source made the active and inactive calls. The rule behind the calls is not given here.

Key:
Assay type in all cases: functional, organism-based
Pseudomonas aeruginosa = test: Antimicrobial activity against Pseudomonas aeruginosa ATCC 27853 after 24 hr by broth microdilution method
Shigella dysenteriae = test: Antimicrobial activity against Shigella dysenteriae NI-51570 after 24 hr by broth microdilution method
Bacillus subtilis = test: Antimicrobial activity against Bacillus subtilis CCRC 10255 after 24 hr by broth microdilution method
Escherichia coli = test: Antimicrobial activity against Escherichia coli ATCC 25922 after 24 hr by broth microdilution method
Salmonella typhi = test: Antimicrobial activity against Salmonella enterica subsp. enterica serovar Typhi ATCC 19430 after 24 hr by broth microdilution method
Staphylococcus aureus = test: Antimicrobial activity against Staphylococcus aureus ATCC 25923 after 24 hr by broth microdilution method
Proteus mirabilis = test: Antimicrobial activity against Proteus mirabilis ATCC 49027 after 24 hr by broth microdilution method

CCCCCCCC(=O)C(C=O)CC (stereo not drawn)
Activity (Pseudomonas aeruginosa): inactive
Activity (Shigella dysenteriae): inactive
Activity (Bacillus subtilis): Active
Activity (Escherichia coli): inactive
Activity (Salmonella typhi): inactive
Activity (Staphylococcus aureus): Active
Activity (Proteus mirabilis): inactive

CCCCCCCC(=O)CC=O
Activity (Bacillus subtilis): Active
Activity (Staphylococcus aureus): Active

CCCCCCCCCC(=O)CC=O
Activity (Bacillus subtilis): Active
Activity (Staphylococcus aureus): Active

CCCCCCCCCCCC(=O)CC=O
Activity (Bacillus subtilis): Active
Activity (Staphylococcus aureus): Active
